Measurements as given in patent US20080312208A1, “Pyridine Analogues” (ASTRAZENECA AB, priority 2005, published 2008).

Legend:
P2Y12 receptor = target: T1, P2Y12 receptor (Homo sapiens, UniProt Q9H244); experiment: Functional inhibition of 2-Me-S-ADP induced P2Y12 signalling (35S-GTPγS, cell membranes); assay type: biochemical; details: membranes from P2Y12 transfected CHO-cells, EC80 concentration of agonist 2-methyl-thio-adenosine diphosphate, 30° C. for 45 min
T1 construct: expressed in transfected cells; host or cells: CHO cells (membranes)
T1 sequence (Q9H244 whole entry): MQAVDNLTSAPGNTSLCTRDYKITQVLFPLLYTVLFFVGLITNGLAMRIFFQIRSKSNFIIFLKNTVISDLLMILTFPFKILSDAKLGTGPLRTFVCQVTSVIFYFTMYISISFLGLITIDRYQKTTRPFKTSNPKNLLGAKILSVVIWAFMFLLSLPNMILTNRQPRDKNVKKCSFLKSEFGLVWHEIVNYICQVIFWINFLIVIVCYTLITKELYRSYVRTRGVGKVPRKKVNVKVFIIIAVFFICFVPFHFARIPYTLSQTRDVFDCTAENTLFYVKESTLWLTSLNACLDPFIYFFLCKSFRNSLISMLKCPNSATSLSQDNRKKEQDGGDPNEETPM
Procedure: Functional inhibition of the P2Y12 receptor can be measured by in vitro assays using cell membranes from P2Y12 transfected CHO-cells, the methodology is indicated below.
Functional inhibition of 2-Me-S-ADP induced P2Y12 signalling: 5 μg of membranes were diluted in 200 μl of 200 mM NaCl, 1 mM MgCl2, 50 mM HEPES (pH 7.4), 0.01% BSA, 30 μg/ml saponin and 10 μM GDP. To this was added an EC80 concentration of agonist (2-methyl-thio-adenosine diphosphate), the required concentration of test compound and 0.1 μCi ^35S-GTPγS. The reaction was allowed to proceed at 30° C. for 45 min. Samples were then transferred on to GF/B filters using a cell harvester and washed with wash buffer (50 mM Tris (pH 7.4), 5 mM MgCl2, 50 mM NaCl). Filters were then covered with scintillant and counted for the amount of ^35S-GTPγS retained by the filter. Maximum activity was that determined in the presence of the agonist and minimum activity in the absence of the agonist following subtraction of the value determined for nonspecific activity. The effect of compounds at various concentrations was plotted according to the equation
y=A+((B−A)/(1+((C/x)̂D)))
and IC50 estimated where A is the bottom plateau of the curve i.e. the final minimum y value B is the top of the plateau of the curve i.e. the final maximum y value C is the x value at the middle of the curve. […]

[1] = Moisture adsorption of crystalline form on storage at 80% RH; assay type: physicochemical; details: stored at 80% RH (ambient)
Procedure: The crystalline forms may be further characterised by the presence of one or more of the additional properties listed below: • (i) for Form I • (I) when characterised by thermogravimetric analysis, a weight loss of approx. 0.8% occurs in the range from 25° C. up to 205° C., and/or • (II) when characterised by differential scanning calorimetry, at a heating rate of 10° C. per minute in a closed cup with a pinhole under flowing nitrogen, a melting temperature (Tm) having an onset at about 194° C. and/or an associated endotherm of melting of about 96 J/g; and/or • (III) when stored at 80% RH (ambient) less than 0.2% moisture is adsorbed, • (i) […] • (I) when characterised by thermogravimetric analysis, a weight loss of approx. 0.2% occurs in the range from 25° C. up to 205° C., and/or • (II) when characterised by differential scanning calorimetry, at a heating rate of 10° C. per minute in a closed cup with a pinhole under flowing nitrogen, a melting temperature (Tm) having an onset at about 193° C. and/or an associated endotherm of melting of about 105 J/g.

Row | SMILES | IC50 (P2Y12 receptor) [nM] | moisture adsorbed [1]
1 | Cc1nc(N2CC(C(=O)NS(=O)(=O)Cc3cccc(F)c3)C2)c(C#N)cc1C(=O)OC(C)C [Example 91, Isopropyl 5-cyano-6-[3-({[(3-fluorobenzyl)sulfonyl]amino}carbonyl)azetidin-1-yl]-2-methylnicotinate] | 460 | –
2 | CCOC(=O)c1cc(C#N)c(N2CCC(C(=O)NS(=O)(=O)Cc3ccc(C(C)C)cc3)CC2)nc1C [Example 119, Ethyl 5-cyano-6-[4-({[(4-isopropylbenzyl)sulfonyl]amino}carbonyl)piperidin-1-yl]-2-methylnicotinate] | 250 | –
3 | CCOC(=O)c1cc(C#N)c(N2CCC(C(=O)NS(=O)(=O)Cc3ccccc3)CC2)nc1C [Form I, 6-(4-{[(benzylsulfonyl)amino]carbonyl}piperidin-1-yl)-5-cyano-2-methylnicotinic acid ethyl ester] | – | less than 0.2%
